Measured values as given in patent US4673562A, “Bisamide bisthiol compounds useful for making technetium radiodiagnostic renal agents” (The Children's Medical Center Corporation, priority 1983, dated 1987).
Where “and” joins values, the source holds several entries; their conditions need not be identical. Identical values can stand only once.

Experiments:
[1] = in vivo; cited from earlier work
[2] = Gamma camera: % total dose in bladder, 99mTc complexes coinjected with 131I-OIH into normal dogs (Tables I, III); type: in vivo, dog; design: Comparison of % total dose in bladder versus 131I-OIH, column headed by drawing 19 (± s.d.): unit not given here; conditions: for % Total Dose In Bladder (gamma camera data) / pharmacokinetic behavior of the diastereomers / rate of excretion in the urine: normal dogs; for % Total Dose In Bladder (gamma camera data): single animals; for % total dose in bladder at 35 minutes, Average 99mTc (± s.d) / Comparison of % total dose in bladder versus 131I-OIH, column headed by drawing 19 (± s.d.): Table III; for % total dose in bladder at 35 minutes, Average 99mTc (± s.d): average of dogs; for Comparison of % total dose in bladder versus 131I-OIH, column headed by drawing 19 (± s.d.): dogs; for rate of excretion in the urine: versus 131I-OIH
Description: The two fractions collected from the products of synthesis in each case were denoted (XVIA), (XVIB), (XXXIA), and (XXXIB), respectively.
Images were recorded at 1, 5, 10, 15, 20, 25, 30 and 35 minutes after administration. The initial image at one minute was used to collect 750,000 counts. All subsequent images were exposed for the same length of time as this first image, and the number of counts noted. […] In this way, the counts collected in the camera images cound be related to absolute activity levels (mCi or μCi). The animals were then observed until the urine samples were free of ^99m Tc.
The values represent the calculated % total dose in the camera region of interest set over the bladder.

[3] = Average % total dose in urine samples of dogs (Table II); type: in vivo, dog; conditions: mean
Description: The diastereomeric ^99m Tc complexes formed by reduction of pertechnetate in the presence of (2-benzoylthioacetyl)- glycyl-(S-benzoyl)-cysteine methyl ester (compound XVI) and N-2-(benzoylthio)ethyl)-N'-1-carbomethoxy-(2-benzoylthio)ethyl]oxamide (compound XXXI) were synthesized and separated by high pressure liquid chromatography. The two fractions collected from the products of synthesis in each case were denoted (XVIA), (XVIB), (XXXIA), and (XXXIB), respectively.
Samples of each fraction were mixed with appropriate amounts of ^131 I-OIH and coinjected into normal dogs placed under a gamma camera. Images were recorded at 1, 5, 10, 15, 20, 25, 30 and 35 minutes after administration. The initial image at one minute was used to collect 750,000 counts. All subsequent images were exposed for the same length of time as this first image, and the number of counts noted. Immediately after each count, a urine sample was drawn from the bladder via a indwelling catheter, and the ^99m Tc ANd ^131 I activity determined using an ionization chamber. In this way, the counts collected in the camera images cound be related to absolute activity levels (mCi or μCi). The animals were then observed until the urine samples were free of ^99m Tc.
In Table II can be seen the average % total dose valus observed in the urine samples collected at each time point. Also quoted in parentheses are the standard deviation and standard error of the mean.

[4] = Biodistribution in Swiss Webster albino male mice, coinjected with 131I-OIH (Tables IV, V); type: in vivo, mouse; conditions: for clearance into the urine: mice, versus 131I-OIH
Description: The diastereomers (XVIA) and (XVIB) were synthesized and then isolated by high pressure liquid chromatography as described previously, and their biodistributions obtained in groups in six Swiss Webster albino male mice. […] The mice were then placed in metabolic cages to collect urine. At 10 and 120 minutes after injection, the penis was ligated, the mice killed with chloroform vapor, and the organs disected.

[5] = Table IV, 10 min, XVI A and 131I-OIH coinjected
[6] = Table IV, 120 min, XVI A and 131I-OIH coinjected
[7] = Table V, 10 min, XVI B and 131I-OIH coinjected
[8] = Table V, 120 min, XVI B and 131I-OIH coinjected

SMILES	% Total Dose In Bladder (gamma camera data) ([2]; 5 min post injection, 5 min)	% Total Dose In Bladder (gamma camera data) ([2]; 10 min post injection, 10 min)	% Total Dose In Bladder (gamma camera data) ([2]; 15 min post injection, 15 min)	% Total Dose In Bladder (gamma camera data) ([2]; 20 min post injection, 20 min)	% Total Dose In Bladder (gamma camera data) ([2]; 25 min post injection, 25 min)	% Total Dose In Bladder (gamma camera data) ([2]; 30 min post injection, 30 min)	% Total Dose In Bladder (gamma camera data) ([2]; 35 min post injection, 35 min)	% total dose in bladder at 35 minutes, Average 99mTc (± s.d) ([2]; 35 min) [% total dose]	Comparison of % total dose in bladder versus 131I-OIH, column headed by drawing 19 (± s.d.) ([2]; 35 min)	pharmacokinetic behavior of the diastereomers [2]	rate of excretion in the urine [2]	Average % Total Dose in Urine Samples ([3]; 5 min post injection, 5 min) [% total dose]	Average % Total Dose in Urine Samples ([3]; 10 min post injection, 10 min) [% total dose]	Average % Total Dose in Urine Samples ([3]; 15 min post injection, 15 min) [% total dose]	Average % Total Dose in Urine Samples ([3]; 20 min post injection, 20 min) [% total dose]	Average % Total Dose in Urine Samples ([3]; 25 min post injection, 25 min) [% total dose]	Average % Total Dose in Urine Samples ([3]; 30 min post injection, 30 min) [% total dose]	Average % Total Dose in Urine Samples ([3]; 35 min post injection, 35 min) [% total dose]	clearance into the urine [4]	further results
O=C(O)Cn1cc(I)c(=O)c(I)c1 [iodo-pyracet]																				removal from circulation by the liver [1]: partial removal from the circulation by the liver
O=C(O)C1C[S][Tc-]23(=[O])[S]CC(=O)[N]2CC(=O)[N]13 (single isomer, unassigned) [XVIA]	13.13 % total dose and 9.63 % total dose and 3.25 % total dose	38.08 % total dose and 34.15 % total dose and 33.73 % total dose	49.99 % total dose and 47.44 % total dose and 46.89 % total dose	57.29 % total dose and 59.01 % total dose and 56.40 % total dose	63.73 % total dose and 64.39 % total dose and 62.63 % total dose	63.67 % total dose and 66.95 % total dose and 58.77 % total dose	66.64 % total dose and 72.79 % total dose and 63.08 % total dose	67.50	91.71	identical	comparable rates of excretion to each other and to OIH	8.67	35.32	48.11	57.57	63.25	63.20	67.50	cleared rapidly into the urine at comparable rates to each other and to the radiopharmaceutical ^131 I-OIH	Blood, % total dose per organ ± s.d. [4, 5]: 2.24 ± 0.33 % total dose per organ; Intestine, % total dose per organ ± s.d. [4, 5]: 1.07 ± 0.20 % total dose per organ; Kidneys, % total dose per organ ± s.d. [4, 5]: 3.19 ± 0.41 % total dose per organ; Liver, % total dose per organ ± s.d. [4, 5]: 1.39 ± 0.31 % total dose per organ; Stomach, % total dose per organ ± s.d. [4, 5]: 0.10 ± 0.01 % total dose per organ; Urine, % total dose ± s.d. [4, 5]: 65.01 ± 9.7 % total dose per organ; Blood, % total dose per organ ± s.d. [4, 6]: 0.05 ± 0.01 % total dose per organ; Intestine, % total dose per organ ± s.d. [4, 6]: 0.99 ± 0.59 % total dose per organ; Kidneys, % total dose per organ ± s.d. [4, 6]: 0.11 ± 0.04 % total dose per organ; Liver, % total dose per organ ± s.d. [4, 6]: 0.19 ± 0.03 % total dose per organ; Stomach, % total dose per organ ± s.d. [4, 6]: 0.21 ± 0.47 % total dose per organ; Urine, % total dose ± s.d. [4, 6]: 89.87 ± 2.70 % total dose per organ
O=C(O)C1C[S][Tc-]23(=[O])[S]CC[N]2C(=O)C(=O)[N]13 (single isomer, unassigned) [XXXIA]	5.76 % total dose and 4.12 % total dose and 0.81 % total dose	15.30 % total dose and 12.39 % total dose and 9.87 % total dose	22.26 % total dose and 15.99 % total dose and 16.51 % total dose	28.21 % total dose and 21.59 % total dose and 22.50 % total dose	32.68 % total dose and 25.47 % total dose and 27.72 % total dose	38.08 % total dose and 30.43 % total dose and 32.34 % total dose	41.57 % total dose and 31.19 % total dose and 34.90 % total dose	35.89	46.80		a significant difference exists between (XXXIA) and (XXXIB)	3.56	12.52	18.25	24.10	28.62	33.63	35.89		
[O]=[Tc](=[O])(=[O])[O-] [pertechnetate]																				absolute concentration in the renal parenchyma [1]: low; filtered activity reabsorbed by the renal tubules [1]: about 86%; urinary excretion [1]: relatively slow
O=C(O)C1C[S][Tc-]23(=[O])[S]CC[N]2C(=O)C(=O)[N]13 (single isomer, unassigned) [XXXIB]	15.45 % total dose and 12.59 % total dose and 12.63 % total dose	37.76 % total dose and 28.47 % total dose and 27.98 % total dose	49.26 % total dose and 41.85 % total dose and 35.28 % total dose	61.08 % total dose and 48.71 % total dose and 43.22 % total dose	67.47 % total dose and 55.87 % total dose and 48.35 % total dose	70.23 % total dose and 60.72 % total dose and 50.84 % total dose	69.76 % total dose and 61.09 % total dose and 57.93 % total dose	62.93	77.80		a significant difference exists between (XXXIA) and (XXXIB)	13.56	31.40	42.13	51.00	57.23	60.60	62.93		
O=C(O)C1C[S][Tc-]23(=[O])[S]CC(=O)[N]2CC(=O)[N]13 (single isomer, unassigned) [XVIB]	12.31 % total dose and 10.03 % total dose and 19.60 % total dose	28.53 % total dose and 33.78 % total dose and 36.51 % total dose	39.47 % total dose and 45.88 % total dose and 47.52 % total dose	45.09 % total dose and 53.55 % total dose and 55.57 % total dose	48.09 % total dose and 60.94 % total dose and 59.98 % total dose	53.05 % total dose and 64.60 % total dose and 70.00 % total dose	54.63 % total dose and 73.12 % total dose and 71.57 % total dose	66.44	92.25	identical	comparable rates of excretion to each other and to OIH	13.98	32.94	44.29	51.40	56.34	62.55	66.44	cleared rapidly into the urine at comparable rates to each other and to the radiopharmaceutical ^131 I-OIH	Blood, % total dose per organ ± s.d. [4, 7]: 1.47 ± 0.72 % total dose per organ; Intestine, % total dose per organ ± s.d. [4, 7]: 0.48 ± 0.18 % total dose per organ; Kidneys, % total dose per organ ± s.d. [4, 7]: 4.41 ± 3.6 % total dose per organ; Liver, % total dose per organ ± s.d. [4, 7]: 0.79 ± 0.49 % total dose per organ; Stomach, % total dose per organ ± s.d. [4, 7]: 0.06 ± 0.03 % total dose per organ; Urine, % total dose ± s.d. [4, 7]: 79.32 ± 5.1 % total dose per organ; Blood, % total dose per organ ± s.d. [4, 8]: 0.13 ± 0.10 % total dose per organ; Intestine, % total dose per organ ± s.d. [4, 8]: 0.40 ± 0.17 % total dose per organ; Kidneys, % total dose per organ ± s.d. [4, 8]: 0.08 ± 0.07 % total dose per organ; Liver, % total dose per organ ± s.d. [4, 8]: 0.11 ± 0.06 % total dose per organ; Stomach, % total dose per organ ± s.d. [4, 8]: 0.07 ± 0.12 % total dose per organ; Urine, % total dose ± s.d. [4, 8]: 91.47 ± 1.1 % total dose per organ
